What all share (format): cell-based
For experiment [1], the target named is T1, D3 DAR (Homo sapiens, UniProt P35462). Nature of the experiment: Go BRET activation assay, D3 DAR. Particulars: EC80 DA (30 nM); for Emax: 5 min, read-out: D3 Go BRET Imax. As to the method: Briefly, HEK293T cells transiently expressing either the D2 DAR or D3 DAR and GαoA-Rluc8, untagged-β1, and mVenus-γ2 were harvested with EBSS, plated in 96-well white plates at 20,000 cells/well in DPBS and incubated at RT for 45 min. […] BRET signal was determined by quantifying and calculating the ratio of the light emitted by mVenus (525 nm) over that emitted by RLuc8 (485 nm) using a PHERAstar FSX Microplate Reader (BMG Labtech).
T1 sequence (P35462 whole entry): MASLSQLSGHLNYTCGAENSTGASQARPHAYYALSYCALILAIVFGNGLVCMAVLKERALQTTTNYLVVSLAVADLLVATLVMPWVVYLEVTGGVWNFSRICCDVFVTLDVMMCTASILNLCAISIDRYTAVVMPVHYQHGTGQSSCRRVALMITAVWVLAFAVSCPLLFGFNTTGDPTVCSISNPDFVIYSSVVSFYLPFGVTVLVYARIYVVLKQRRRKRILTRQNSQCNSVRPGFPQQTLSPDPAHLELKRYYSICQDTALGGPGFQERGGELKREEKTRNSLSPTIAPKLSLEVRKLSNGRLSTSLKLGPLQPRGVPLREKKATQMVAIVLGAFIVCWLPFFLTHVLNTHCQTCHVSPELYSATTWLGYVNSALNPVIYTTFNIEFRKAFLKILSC
For orientation: Bioluminescence resonance energy transfer reports proximity on the nanometre scale.

Experiment [2] has as its target T1, D3 DAR. Nature of the experiment: DiscoverX D3 DAR β-arrestin recruitment assay. More on the design: host or cells: CHO. Particulars: for IC50: EC80 concentration of DA (30 nM), read-out: D3 DAR IC50; for Emax / D3 DAR Imax: Imax=maximum inhibition, EC80 DA (30 nM). An excerpt: A D3 DAR β-arrestin cell line from DiscoverX (Fremont, CA) was used as described in the protocol below (Table 2). A CHO cell line engineered to overexpress the D3 DAR fused with a small 42-amino acid fragment of β-galactosidase called ProLink™ and a fusion protein consisting of β-arrestin and a larger N-terminal deletion mutant of β-galactosidase was used (DiscoverX catalogue number 93-0579C2). When the D3 DAR is activated by dopamine, it stimulates binding of β-arrestin to ProLink-tagged D3 DARs, and the two complementary parts of β-galactosidase form a functional enzyme. When substrate (PathHunter® Detection reagent, DiscoverX 93-0001) is added, β-galactosidase hydrolyzes it and generates a chemiluminescent signal.
For orientation: Arrestin recruitment assays detect the binding of arrestin to an activated receptor.

A further experiment addresses D2 DAR (Homo sapiens, UniProt P14416). In words: DiscoverX D2 DAR β-arrestin recruitment assay. More on the design: host or cells: CHO. Particulars: EC80 concentration of DA (1 μM). An excerpt: For a secondary-screen and selectivity assays, DAR PathHunter®-arrestin GPCR cell lines from DiscoverX (Fremont, CA) were used. In the D2 DAR PathHunter®-arrestin GPCR cell line, the D2 DAR is overexpressed and fused with a small 42-amino acid fragment of β-galactosidase called ProLink™ on a CHO cellular background expressing a fusion protein of β-arrestin and a larger N-terminal deletion mutant of β-galactosidase (“enzyme acceptor”). When the D2 DAR is activated by dopamine, it stimulates binding of β-arrestin to the ProLink-tagged DAR and the two complementary parts of β-galactosidase form a functional enzyme. When substrate (PathHunter™ Detection reagent) is added, β-galactosidase hydrolyzes it and generates a chemiluminescent signal.

SMILES strings stand for the structures.

Consider 20 compounds from patent US20240336604A1 (THE UNITED STATES OF AMERICA, AS REPRESENTED BY THE …, priority 2021, published 2024).

D2 DAR, sequence (P14416 whole entry, the tested form may be a part): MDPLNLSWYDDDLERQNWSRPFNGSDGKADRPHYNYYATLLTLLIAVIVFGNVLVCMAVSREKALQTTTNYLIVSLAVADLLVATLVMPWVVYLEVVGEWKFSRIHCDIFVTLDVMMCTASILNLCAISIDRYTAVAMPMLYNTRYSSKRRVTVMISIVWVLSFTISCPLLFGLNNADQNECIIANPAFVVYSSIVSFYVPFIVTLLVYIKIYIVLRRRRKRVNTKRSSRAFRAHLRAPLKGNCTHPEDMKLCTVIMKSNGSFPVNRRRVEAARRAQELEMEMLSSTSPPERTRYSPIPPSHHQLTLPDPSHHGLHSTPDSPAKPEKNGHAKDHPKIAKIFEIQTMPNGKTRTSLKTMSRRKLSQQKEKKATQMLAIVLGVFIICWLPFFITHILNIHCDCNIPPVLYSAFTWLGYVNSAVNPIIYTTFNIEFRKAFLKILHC

With `Cc1[nH]c(C)c(S(=O)(=O)Nc2ccc(S(F)(F)(F)(F)F)cc2)c1C(=O)N1CCC(F)(F)C1` [compound 28], the Emax on D3 DAR [1] and on D3 DAR [2] was 80 to 100% each time. Also, the figures for the IC50 on D3 DAR [1], on D3 DAR [2] and on D2 DAR were 1 to 10 µM, less than 10 µM and greater than 100 µM, respectively. Further, the “D2 DAR Imax” value at D2 DAR was “NA (“NA” indicates not active)”.

`CCc1ccc(NS(=O)(=O)c2c(C)[nH]c(C)c2C(=O)N2CCCC2)cc1` [compound 15]: at D3 DAR [1], the Emax is 80 to 100% and the IC50 (commonly the concentration needed to halve the response being measured) was 10 to 50 µM. Also, at D3 DAR [2], the IC50 is less than 10 µM and the Emax was in the range of 80 to 100%. Besides, on D2 DAR, the “D2 DAR Imax” value is on record as “NA (“NA” indicates not active)” and the half-inhibitory concentration (IC50) was greater than 100 µM.

Turning to `Cc1[nH]c(C)c(S(=O)(=O)Nc2cc(Cl)c(C(F)(F)F)c(Cl)c2)c1C(=O)N1CCC(F)(F)C1` [compound 35, N-(3,5-dichloro-4-(trifluoromethyl)phenyl)-4-(3,3-difluoropyrrolidine-1-carbonyl)-2,5-dimethyl-1H-pyrrole-3-sulfonamide], the Emax at D3 DAR [1] and on D3 DAR [2] was 80 to 100% each time. Also, the values for the IC50 against D3 DAR [1], on D3 DAR [2] and on D2 DAR were less than 1 µM, less than 10 µM and greater than 100 µM, respectively. The “D2 DAR Imax” value at D2 DAR is “NA (“NA” indicates not active)”.

With `O=C(c1c(S(=O)(=O)Nc2ccc(C(F)(F)F)c(Cl)c2)c[nH]c1C(F)(F)F)N1CCCC1` [compound 37], on D3 DAR [1], the IC50 was greater than 50 µM. Further, at D3 DAR [2], the IC50 was 10 to 50 µM and the Emax lay within 80 to 100%. Also, on D2 DAR, the “D2 DAR Imax” value is recorded as “NA (“NA” indicates not active)” and the IC50 is greater than 100 µM.

Consider `CCOC(=O)C1=NOC2(C1)C(=O)Nc1ccc(OC(F)(F)F)cc12` (centres unmarked) [compound 44], for which, on D3 DAR [1], the “D3 Go BRET Imax” value is recorded as “NA (NA means not active)” and the IC50 is greater than 50 µM. Moreover, on D3 DAR [2], the IC50 was less than 10 µM and the Emax was 80 to 100%. On D2 DAR, the “D2 DAR Imax” value is reported as “NA (“NA” indicates not active)” and the IC50 is greater than 100 µM.

On to `Cc1ccc(NS(=O)(=O)c2c(C)[nH]c(C)c2C(=O)N2CCCC2)cc1` [compound 10], for which the IC50 on D3 DAR [1] was greater than 50 µM. Besides, on D3 DAR [2], the IC50 was 10 to 50 µM and the Emax lay in the range of 80 to 100%. At D2 DAR, the “D2 DAR Imax” value is listed as “NA (“NA” indicates not active)” and the IC50 is greater than 100 µM.

As to `Cc1ccc(NS(=O)(=O)c2c(C)[nH]c(C(F)(F)F)c2C(=O)N2CCCC2)cc1Cl` [compound 38], on D3 DAR [1], the Emax was greater than 100% and the IC50 was 1 to 10 µM. In addition, on D3 DAR [2], the IC50 was less than 10 µM and the Emax lay in the range of 80 to 100%. On D2 DAR, the “D2 DAR Imax” value is given as “NA (“NA” indicates not active)” and the IC50 is greater than 100 µM.

With `Cc1ccc(NS(=O)(=O)c2c(C)[nH]c(C)c2C(=O)N2CCCCC2)cc1Cl` [compound 11], the Emax on D3 DAR [1] was greater than 100%; at D3 DAR [2], 80 to 100%. Moreover, the IC50 at D3 DAR [1] is 10 to 50 µM; on D3 DAR [2], 10 to 50 µM; at D2 DAR, greater than 100 µM. At D2 DAR, the “D2 DAR Imax” value is on record as “NA (“NA” indicates not active)”.

Take `Cc1[nH]c(C)c(S(=O)(=O)Nc2ccc(Cl)cc2C(F)(F)F)c1C(=O)N1CCC(F)(F)C1` [compound 42]: on D3 DAR [1], the Emax was greater than 100% and the IC50 was in the range of 10 to 50 µM. For the same compound, at D3 DAR [2], the IC50 is 10 to 50 µM and the Emax is 80 to 100%. For the same compound, at D2 DAR, the “D2 DAR Imax” value is given as “NA (“NA” indicates not active)” and the IC50 was greater than 100 µM.

In the case of `Cc1ccc(NS(=O)(=O)c2c(C)[nH]c(C)c2C(=O)N2CCCC2)cc1C` [compound 12], the IC50 against D3 DAR [1] was greater than 50 µM. In addition, on D3 DAR [2], the IC50 lay within 10 to 50 µM and the Emax fell in the range of 80 to 100%. On D2 DAR, the “D2 DAR Imax” value is on record as “NA (“NA” indicates not active)” and the IC50 was greater than 100 µM.

As to `Cc1[nH]c(C)c(S(=O)(=O)Nc2ccc(C(F)(F)F)c(Cl)c2)c1C(=O)N1CCN(C(=O)OC(C)(C)C)CC1` [compound 19, tert-butyl 4-(4-(N-(3-chloro-4-(trifluoromethyl)phenyl)sulfamoyl)-2,5-dimethyl-1H-pyrrole-3-carbonyl)piperazine-1-carboxylate], at D3 DAR [1], the Emax is greater than 100% and the 50% inhibitory concentration (IC50) was 10 to 50 µM. Further, on D3 DAR [2], the half-maximal inhibitory concentration (IC50) lay within 50 to 100 µM and the Emax was 80 to 100%. On D2 DAR, the “D2 DAR Imax” value is “NA (“NA” indicates not active)” and the IC50 is greater than 100 µM.

Take `Cc1[nH]c(C)c(S(=O)(=O)Nc2ccc(C(F)(F)F)c(Cl)c2)c1C(=O)N1CC(F)(F)C(F)(F)C1` [compound 27, N-(3-chloro-4-(trifluoromethyl)phenyl)-2,5-dimethyl-4-(3,3,4,4-tetrafluoropyrrolidine-1-carbonyl)-1H-pyrrole-3-sulfonamide]: on D3 DAR [1], the Emax was greater than 100% and the IC50 fell in the range of 1 to 10 µM. At D3 DAR [2], the IC50 lay in the range of 10 to 50 µM and the Emax was 80 to 100%. Also, at D2 DAR, the “D2 DAR Imax” value was “NA (“NA” indicates not active)” and the IC50 was greater than 100 µM.

Take `Cc1[nH]c(C)c(S(=O)(=O)Nc2cc(Cl)cc(C(F)(F)F)c2)c1C(=O)N1CCC(F)(F)C1` [compound 40, N-(3-chloro-5-(trifluoromethyl)phenyl)-4-(3,3-difluoropyrrolidine-1-carbonyl)-2,5-dimethyl-1H-pyrrole-3-sulfonamide]: at D3 DAR [1], the Emax is greater than 100% and the IC50 was in the range of 10 to 50 µM. In addition, on D3 DAR [2], the IC50 was in the range of 10 to 50 µM and the Emax was in the range of 80 to 100%. Also, on D2 DAR, the “D2 DAR Imax” value is reported as “NA (“NA” indicates not active)” and the IC50 is greater than 100 µM.

With `Cc1[nH]c(C)c(S(=O)(=O)Nc2ccc(F)cc2)c1C(=O)N1CCCC1` [compound 32], at D3 DAR [1], the Emax is greater than 100% and the IC50 lay within 1 to 10 µM. Further, at D3 DAR [2], the IC50 was greater than 100 µM and the “D3 DAR Imax” value is given as “Curve Incomplete”. Also, at D2 DAR, the “D2 DAR Imax” value is “NA (“NA” indicates not active)” and the concentration for half-maximal inhibition (IC50) is greater than 100 µM.

Regarding `Cc1[nH]c(C)c(S(=O)(=O)Nc2ccc(Cl)c(C(F)(F)F)c2)c1C(=O)N1CCCC1` [compound 7], at D3 DAR [1], the Emax was greater than 100% and the IC50 lay in the range of 1 to 10 µM. Moreover, on D3 DAR [2], the IC50 is less than 10 µM and the Emax was 80 to 100%. At D2 DAR, the “D2 DAR Imax” value was “NA (“NA” indicates not active)” and the IC50 was greater than 100 µM.

For `CCNC(=O)c1c(C)[nH]c(C)c1S(=O)(=O)Nc1ccc(C(F)(F)F)c(Cl)c1` [compound 33, 4-(N-(3-chloro-4-(trifluoromethyl)phenyl)sulfamoyl)-N-ethyl-2,5-dimethyl-1H-pyrrole-3-carboxamide], on D3 DAR [1], the Emax was greater than 100% and the IC50 was 10 to 50 µM. Also, at D3 DAR [2], the concentration for half-maximal inhibition (IC50) was less than 10 µM and the Emax was in the range of 80 to 100%. On D2 DAR, the “D2 DAR Imax” value is on record as “NA (“NA” indicates not active)” and the IC50 was greater than 100 µM.

In the case of `Cc1[nH]c(C)c(S(=O)(=O)Nc2ccc(C(F)(F)F)c(Cl)c2)c1C(=O)O` [compound 22, 4-(N-(3-chloro-4-(trifluoromethyl)phenyl)sulfamoyl)-2,5-dimethyl-1H-pyrrole-3-carboxylic acid], at D3 DAR [1], the Emax is greater than 100% and the IC50 was in the range of 10 to 50 µM. For the same compound, on D3 DAR [2], the IC50 was 50 to 100 µM and the “D3 DAR Imax” value is on record as “Curve Incomplete”. Moreover, on D2 DAR, the “D2 DAR Imax” value is “NA (“NA” indicates not active)” and the IC50 was greater than 100 µM.

Take `CCN(C)C(=O)c1c(C)[nH]c(C)c1S(=O)(=O)Nc1ccc(C(F)(F)F)c(Cl)c1` [compound 29]: at D3 DAR [1], the Emax was greater than 100% and the IC50 lay within 10 to 50 µM. At D3 DAR [2], the IC50 lay in the range of 10 to 50 µM and the Emax is 80 to 100%. Further, on D2 DAR, the “D2 DAR Imax” value is “NA (“NA” indicates not active)” and the IC50 is greater than 100 µM.

With `Cc1[nH]c(C)c(S(=O)(=O)N2CCC(F)(F)C2)c1C(=O)Nc1ccc(C(F)(F)F)c(Cl)c1` [compound 24], the IC50 at D3 DAR [1] was greater than 50 µM. For the same compound, on D3 DAR [2], the IC50 fell in the range of 50 to 100 µM and the “D3 DAR Imax” value is given as “Curve Incomplete”. On D2 DAR, the “D2 DAR Imax” value was “NA (“NA” indicates not active)” and the IC50 is greater than 100 µM.

Take `CCc1[nH]c(CC)c(S(=O)(=O)Nc2ccc(C(F)(F)F)c(Cl)c2)c1C(=O)N1CCCC1` [compound 39, N-(3-chloro-4-(trifluoromethyl)phenyl)-2,5-diethyl-4-(pyrrolidine-1-carbonyl)-1H-pyrrole-3-sulfonamide]: at D3 DAR [1], the Emax is greater than 100% and the IC50 lay within 1 to 10 µM. Also, on D3 DAR [2], the IC50 fell in the range of 10 to 50 µM and the Emax was in the range of 80 to 100%. Besides, at D2 DAR, the “D2 DAR Imax” value is “NA (“NA” indicates not active)” and the IC50 was greater than 100 µM.
